ChEMBL document CHEMBL5226360, “Pseudoprolines as stereoelectronically tunable proline isosteres” (Bioorg Med Chem Lett, 2022)
Values belong to the compound of their own block, whether it stands above or below them. Starred links: 1 amine or outer side, 2 acyl side, 3 side chain; linkers in the order of their positions; H or OH if unused. Non-standard residues stand in square brackets, D forms with d. Residues, ends and D or L forms follow the SMILES beside them. X3 = O=C1C[C@](Cc2ccc(O)cc2)(N[*:1])[C@@H]2SC[C@@H](C(=O)[*:2])N12; X4 = O=C1C[C@](Cc2ccc(O)cc2)(N[*:1])[C@H]2SC[C@@H](C(=O)[*:2])N12; X1 = CC1(C)SC[C@@H](C(=O)[*:2])N1[*:1]; X2 = CC1(C)OC[C@@H](C(=O)[*:2])N1[*:1]; Thz = O=C(O)[C@@H]1CSCN1

Key:
[1] = target: Human immunodeficiency virus type 1 protease (Human immunodeficiency virus 1, UniProt Q72874); experiment: Inhibition of HIV1 protease
[2] = target: D(2) dopamine receptor (Homo sapiens) (UniProt P14416); conditions: dose 1.0 10^-7M
[3] = Tmax in rat at 10 mg/kg, ID; format: ADME, organism-based; conditions: in vivo
[4] = Bioavailability in rat under fasted condition at 10 mg/kg, ID; format: ADME, organism-based; conditions: in vivo
[5] = Bioavailability in rat under fed condition at 10 mg/kg, ID; format: ADME, organism-based; conditions: in vivo
[6] = Half life in rat at 10 mg/kg, iv; format: ADME, organism-based; conditions: in vivo
[7] = target: T1, Type-1 angiotensin II receptor A (Rattus norvegicus, UniProt P25095); experiment: Displacement of [I125I]AngII form AT1 receptor in rat liver membrane incubated for 1.5 hrs by gamma counting method; format: cell membranes
T1 sequence (P25095 whole entry): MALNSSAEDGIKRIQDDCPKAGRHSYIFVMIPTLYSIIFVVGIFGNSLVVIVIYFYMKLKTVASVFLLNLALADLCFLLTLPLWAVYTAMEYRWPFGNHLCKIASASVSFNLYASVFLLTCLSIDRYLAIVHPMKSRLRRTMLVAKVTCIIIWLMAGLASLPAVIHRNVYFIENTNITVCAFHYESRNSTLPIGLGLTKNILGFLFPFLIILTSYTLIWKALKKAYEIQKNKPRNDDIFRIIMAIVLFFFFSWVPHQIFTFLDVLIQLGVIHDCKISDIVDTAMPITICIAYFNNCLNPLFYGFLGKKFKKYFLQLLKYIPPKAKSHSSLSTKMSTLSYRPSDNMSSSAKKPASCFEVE

[8] = target: T2, Type-2 angiotensin II receptor (Rattus norvegicus, UniProt P35351); experiment: Displacement of [I125I]AngII form AT2 receptor in rat liver membrane incubated for 1.5 hrs by gamma counting method; format: cell membranes
T2 sequence (P35351 whole entry): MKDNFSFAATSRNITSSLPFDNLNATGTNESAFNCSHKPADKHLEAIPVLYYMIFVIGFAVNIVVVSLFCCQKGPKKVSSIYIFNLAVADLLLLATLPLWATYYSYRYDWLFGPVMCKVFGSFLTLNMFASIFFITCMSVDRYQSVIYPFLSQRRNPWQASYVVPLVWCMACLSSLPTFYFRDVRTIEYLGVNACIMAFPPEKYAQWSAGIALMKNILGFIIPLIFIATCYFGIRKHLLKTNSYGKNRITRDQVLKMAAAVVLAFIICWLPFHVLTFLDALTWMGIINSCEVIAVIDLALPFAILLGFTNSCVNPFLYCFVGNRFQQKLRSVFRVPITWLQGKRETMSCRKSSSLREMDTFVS

[9] = target: Neurotensin receptor type 2 (Homo sapiens, UniProt O95665); experiment: Inhibition of human NTR2
[10] = target: D(2) dopamine receptor (Homo sapiens) (UniProt P14416); conditions: dose 1.0 10^-8M
[11] = target: Angiotensin-converting enzyme (Homo sapiens, UniProt P12821); experiment: Inhibition of ACE (unknown origin)
[12] = Oral bioavailability in rat at 2 mg/kg; format: ADME, organism-based; conditions: in vivo
[13] = Half life in rat at 2 mg/kg, po; format: ADME, organism-based; conditions: in vivo
[14] = target: Dipeptidyl peptidase 4 (Homo sapiens, UniProt P27487); experiment: Inhibition of DPP4 (unknown origin)
[15] = tested on: Periplaneta americana; experiment: Diuretic activity in Periplaneta americana assessed as hindgut contraction by measuring lasting time incubated for 5 mins by myotropic assay; format: functional
[16] = tested on: Periplaneta americana; experiment: Diuretic activity in Periplaneta americana assessed as hindgut contraction by measuring maximal response incubated for 5 mins by myotropic assay relative to control; format: functional
[17] = tested on: Periplaneta americana; experiment: Diuretic activity in Periplaneta americana assessed as hindgut contraction incubated for 5 mins by myotropic assay; format: functional
[18] = Octanol-water partition coefficient, logP of the compound; format: physicochemical
[19] = Oral bioavailability in rat at 10 mg/kg; format: ADME, organism-based; conditions: in vivo
[20] = Oral bioavailability in dog at 3 mg/kg; format: ADME, organism-based, Canis lupus familiaris; conditions: in vivo
[21] = Oral bioavailability in monkey at 3 mg/kg; format: ADME, organism-based, Macaca mulatta; conditions: rhesus monkey, in vivo
[22] = target: T3, Prolyl endopeptidase (Homo sapiens, UniProt P48147); experiment: Inhibition of POP (unknown origin)
T3 sequence (P48147 whole entry): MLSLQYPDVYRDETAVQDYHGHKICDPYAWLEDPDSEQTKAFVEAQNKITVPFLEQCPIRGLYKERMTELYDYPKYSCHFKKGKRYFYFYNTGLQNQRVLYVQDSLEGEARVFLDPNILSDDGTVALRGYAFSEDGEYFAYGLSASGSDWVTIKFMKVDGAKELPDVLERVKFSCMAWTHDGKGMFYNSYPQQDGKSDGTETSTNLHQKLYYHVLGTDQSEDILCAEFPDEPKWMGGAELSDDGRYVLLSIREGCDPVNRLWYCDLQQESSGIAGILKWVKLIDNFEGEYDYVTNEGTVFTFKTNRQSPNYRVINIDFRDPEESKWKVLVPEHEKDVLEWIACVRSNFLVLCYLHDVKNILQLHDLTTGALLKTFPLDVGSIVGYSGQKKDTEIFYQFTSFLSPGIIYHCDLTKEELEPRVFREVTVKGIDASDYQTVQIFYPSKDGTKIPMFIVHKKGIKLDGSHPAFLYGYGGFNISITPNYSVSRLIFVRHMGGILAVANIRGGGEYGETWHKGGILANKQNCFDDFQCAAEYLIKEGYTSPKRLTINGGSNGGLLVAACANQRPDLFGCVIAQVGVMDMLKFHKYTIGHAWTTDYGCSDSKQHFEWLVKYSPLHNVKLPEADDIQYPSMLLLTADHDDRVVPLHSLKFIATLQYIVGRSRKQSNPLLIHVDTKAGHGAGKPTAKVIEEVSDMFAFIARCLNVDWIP

[23] = Volume of distribution at steady state in rat at 10 mg/kg, iv; format: ADME, organism-based; conditions: in vivo, read-out: Vdss
[24] = Half life in monkey at 3 mg/kg, po or iv; format: ADME, organism-based, Macaca mulatta; conditions: rhesus monkey, in vivo
[25] = Half life in dog at 3 mg/kg, po or iv; format: ADME, organism-based, Canis lupus familiaris; conditions: in vivo
[26] = Clearance in dog at 3 mg/kg, iv; format: ADME, organism-based, Canis lupus familiaris; conditions: in vivo
[27] = Volume of distribution at steady state in dog at 3 mg/kg, iv; format: ADME, organism-based, Canis lupus familiaris; conditions: in vivo, read-out: Vdss
[28] = Clearance in rat at 10 mg/kg, iv; format: ADME, organism-based; conditions: in vivo
[29] = Half life in rat at 10 mg/kg, po or iv; format: ADME, organism-based; conditions: in vivo
[30] = Clearance in monkey at 3 mg/kg, iv; format: ADME, organism-based, Macaca mulatta; conditions: rhesus monkey, in vivo
[31] = Metabolic stability in pooled human liver microsomes assessed as parent compound remaining measured after 1 hr; format: ADME, Microsome; conditions: read-out: Stability
[32] = Volume of distribution at steady state in monkey at 3 mg/kg, iv; format: ADME, organism-based, Macaca mulatta; conditions: rhesus monkey, in vivo, read-out: Vdss

Chain of Neurotensin receptor type 2 (O95665 whole entry): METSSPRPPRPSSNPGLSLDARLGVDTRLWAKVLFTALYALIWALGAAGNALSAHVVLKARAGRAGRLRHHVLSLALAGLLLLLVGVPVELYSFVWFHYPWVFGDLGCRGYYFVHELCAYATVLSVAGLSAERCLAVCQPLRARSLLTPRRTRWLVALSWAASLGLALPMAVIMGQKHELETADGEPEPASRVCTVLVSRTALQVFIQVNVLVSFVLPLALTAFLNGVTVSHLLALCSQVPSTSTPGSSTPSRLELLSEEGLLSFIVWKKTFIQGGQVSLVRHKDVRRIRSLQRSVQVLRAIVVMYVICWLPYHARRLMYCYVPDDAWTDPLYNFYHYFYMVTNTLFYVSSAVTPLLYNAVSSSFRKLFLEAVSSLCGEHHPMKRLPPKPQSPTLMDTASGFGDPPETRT
Chain of Dipeptidyl peptidase 4 (P27487 whole entry): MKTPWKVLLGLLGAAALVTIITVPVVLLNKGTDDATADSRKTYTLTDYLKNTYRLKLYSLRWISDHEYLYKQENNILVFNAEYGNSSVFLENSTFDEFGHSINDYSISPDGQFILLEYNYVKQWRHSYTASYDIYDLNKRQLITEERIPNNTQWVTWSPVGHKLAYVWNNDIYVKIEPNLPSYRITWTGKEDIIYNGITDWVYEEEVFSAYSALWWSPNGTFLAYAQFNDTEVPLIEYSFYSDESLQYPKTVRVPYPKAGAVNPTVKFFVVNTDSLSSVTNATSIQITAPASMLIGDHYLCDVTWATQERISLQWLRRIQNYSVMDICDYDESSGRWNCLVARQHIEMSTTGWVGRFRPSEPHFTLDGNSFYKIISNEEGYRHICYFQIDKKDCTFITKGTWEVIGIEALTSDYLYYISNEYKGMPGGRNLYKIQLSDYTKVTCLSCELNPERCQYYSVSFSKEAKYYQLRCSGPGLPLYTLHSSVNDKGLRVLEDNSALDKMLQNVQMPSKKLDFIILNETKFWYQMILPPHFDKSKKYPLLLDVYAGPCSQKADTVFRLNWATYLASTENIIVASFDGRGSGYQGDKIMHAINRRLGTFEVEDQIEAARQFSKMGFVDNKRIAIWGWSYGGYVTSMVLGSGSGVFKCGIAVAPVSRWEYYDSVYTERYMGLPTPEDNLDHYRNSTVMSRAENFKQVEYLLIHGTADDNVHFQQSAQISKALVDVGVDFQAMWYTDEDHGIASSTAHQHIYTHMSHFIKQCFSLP
Chain of Angiotensin-converting enzyme (P12821 whole entry): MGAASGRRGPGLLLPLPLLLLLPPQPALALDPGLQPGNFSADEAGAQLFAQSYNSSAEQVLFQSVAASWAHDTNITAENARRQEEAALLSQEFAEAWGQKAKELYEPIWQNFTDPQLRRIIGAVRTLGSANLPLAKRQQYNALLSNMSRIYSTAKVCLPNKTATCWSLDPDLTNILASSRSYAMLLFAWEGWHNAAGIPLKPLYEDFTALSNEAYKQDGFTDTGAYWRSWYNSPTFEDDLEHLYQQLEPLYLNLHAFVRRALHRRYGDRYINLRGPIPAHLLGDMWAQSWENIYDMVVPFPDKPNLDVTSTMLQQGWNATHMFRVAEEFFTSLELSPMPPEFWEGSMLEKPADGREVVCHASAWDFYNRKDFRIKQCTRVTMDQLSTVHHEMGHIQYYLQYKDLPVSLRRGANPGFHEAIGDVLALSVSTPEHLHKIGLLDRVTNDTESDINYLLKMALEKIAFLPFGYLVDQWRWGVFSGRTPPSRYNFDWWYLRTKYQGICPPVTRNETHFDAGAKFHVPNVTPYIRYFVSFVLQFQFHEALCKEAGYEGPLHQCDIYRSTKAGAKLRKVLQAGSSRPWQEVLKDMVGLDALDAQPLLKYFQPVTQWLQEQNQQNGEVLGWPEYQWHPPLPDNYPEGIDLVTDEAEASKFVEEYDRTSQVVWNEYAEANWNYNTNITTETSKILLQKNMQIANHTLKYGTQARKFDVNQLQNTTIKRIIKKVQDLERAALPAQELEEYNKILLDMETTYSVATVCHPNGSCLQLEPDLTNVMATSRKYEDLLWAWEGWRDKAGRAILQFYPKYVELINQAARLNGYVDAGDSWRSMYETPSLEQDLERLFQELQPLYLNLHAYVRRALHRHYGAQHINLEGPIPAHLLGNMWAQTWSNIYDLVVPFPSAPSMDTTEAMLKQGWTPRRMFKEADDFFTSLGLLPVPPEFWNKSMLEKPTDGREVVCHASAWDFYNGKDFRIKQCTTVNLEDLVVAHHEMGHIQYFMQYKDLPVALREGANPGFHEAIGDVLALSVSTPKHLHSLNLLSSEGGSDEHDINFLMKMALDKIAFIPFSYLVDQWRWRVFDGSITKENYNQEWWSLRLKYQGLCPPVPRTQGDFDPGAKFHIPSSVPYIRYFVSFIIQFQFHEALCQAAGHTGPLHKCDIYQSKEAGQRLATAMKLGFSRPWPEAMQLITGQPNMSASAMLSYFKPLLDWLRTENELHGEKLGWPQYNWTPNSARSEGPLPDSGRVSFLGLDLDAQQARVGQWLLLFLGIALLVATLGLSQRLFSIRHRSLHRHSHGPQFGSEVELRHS
Chain of D(2) dopamine receptor (Homo sapiens) (P14416 whole entry): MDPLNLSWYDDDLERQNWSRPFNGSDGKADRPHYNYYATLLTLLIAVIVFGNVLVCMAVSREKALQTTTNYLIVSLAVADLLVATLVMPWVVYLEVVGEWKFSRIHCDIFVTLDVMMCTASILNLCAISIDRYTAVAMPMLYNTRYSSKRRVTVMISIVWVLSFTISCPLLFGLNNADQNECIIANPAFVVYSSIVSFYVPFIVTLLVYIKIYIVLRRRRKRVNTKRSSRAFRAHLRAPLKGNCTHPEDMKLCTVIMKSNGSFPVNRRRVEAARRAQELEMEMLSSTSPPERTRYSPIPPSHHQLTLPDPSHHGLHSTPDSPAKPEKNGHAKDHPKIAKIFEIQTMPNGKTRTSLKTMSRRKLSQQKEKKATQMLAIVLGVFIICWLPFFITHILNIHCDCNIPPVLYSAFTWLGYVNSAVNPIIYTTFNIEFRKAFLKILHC

IC50 [1]: 8.8 nM
SMILES: CC(C)(C)NC(=O)[C@@H]1CSCN1C(=O)[C@@H](O)[C@H](Cc1ccccc1)NC(=O)[C@H](CC(N)=O)NC(=O)COc1cccc2ccccc12

inhibition [2]: 21.4%
SMILES: NC(=O)[C@@H]1CS[C@@H]2CC[C@]3(CCCN3C(=O)[C@@H]3CCCN3)C(=O)N21

Tmax [3]: 1 h
bioavailability [4]: 33%
bioavailability [5]: 33%
half-life [6]: 1.55 h
SMILES: Cc1ccccc1CNC(=O)[C@H]1N(C(=O)[C@@H](O)[C@H](Cc2ccccc2)NC(=O)c2cccc(O)c2C)CSC1(C)C

Ki [7]: > 10000 nM
Ki [8]: 3.7 nM
SMILES: CC(C)C[C@H](NC(=O)[C@H](CCCNC(=N)N)NC(=O)[C@@H](N)CC(=O)O)C(=O)N[C@@]1(Cc2ccc(O)cc2)CC(=O)N2[C@H](C(=O)N[C@@H](Cc3c[nH]cn3)C(=O)N3CCC[C@H]3C(=O)N[C@@H](Cc3ccccc3)C(=O)O)CS[C@@H]21 (H-DRL[X4]HPF-OH)

IC50 [9]: 0.47 nM
SMILES: CC[C@H](C)[C@H](NC(=O)[C@H](Cc1ccc(O)cc1)NC(=O)[C@@H]1CCCN1C(=O)[C@H](CCCCN)NC(=O)[C@@H](N)CCCCN)C(=O)N[C@@H](CC(C)C)C(=O)O

IC50 [1]: 2.8 nM
SMILES: CC(C)(C)NC(=O)[C@H]1N(C(=O)[C@@H](O)[C@H](Cc2ccccc2)NC(=O)[C@H](CC(N)=O)NC(=O)COc2cccc3ccccc23)CSC1(C)C

IC50 [1]: 89 nM
SMILES: CC(C)(C)NC(=O)[C@@H]1CCCN1C(=O)[C@@H](O)[C@H](Cc1ccccc1)NC(=O)[C@H](CC(N)=O)NC(=O)OCc1ccccc1

inhibition [10]: 14.6%
SMILES: NC(=O)[C@H]1CS[C@@H]2CC[C@]3(CCCN3C(=O)[C@@H]3CCCN3)C(=O)N12

IC50 [1]: 31 nM
SMILES: CC(C)(C)NC(=O)[C@@H]1CSCN1C(=O)[C@@H](O)[C@H](Cc1ccccc1)NC(=O)[C@H](CC(N)=O)NC(=O)OCc1ccccc1

IC50 [11]: 372 nM
SMILES: C[C@H](CS)C(=O)N1CSC[C@H]1C(=O)O

bioavailability [12]: 1.2%
half-life [13]: 0.63 h
IC50 [14]: 0.48 nM
SMILES: CC(C)[C@H](Nc1ccc(CNC(=O)[C@@H]2CCCN2C(=O)C[C@H](N)Cc2cc(F)ccc2F)cc1)C(=O)O

Ki [7]: > 10000 nM
Ki [8]: 1 nM
SMILES: CC(C)C[C@H](NC(=O)[C@H](CCCNC(=N)N)NC(=O)[C@@H](N)CC(=O)O)C(=O)N[C@@]1(Cc2ccc(O)cc2)CC(=O)N2[C@H]1SC[C@H]2C(=O)N[C@@H](Cc1c[nH]cn1)C(=O)N1CCC[C@H]1C(=O)N[C@@H](Cc1ccccc1)C(=O)O (H-DRL[X3]HPF-OH)

EC50 [17]: 0.708 nM
SMILES: CC1(C)SC[C@@H](C(=O)N[C@@H](Cc2c[nH]c3ccccc23)C(=O)NCC(N)=O)N1C(=O)[C@H](Cc1ccccc1)NC(=O)[C@@H](N)Cc1ccccc1 (H-FF[X1]WG-NH2)
Time [15]: 108 s
Activity [16]: 100.6%

IC50 [11]: 832 nM
SMILES: C[C@H](CS)C(=O)N1CCS[C@H]1C(=O)O

logP [18]: 0.094
SMILES: O=C(O)[C@@H]1CCCN1C(=O)OCC1c2ccccc2-c2ccccc21

logP [18]: 1.3
SMILES: C[Si]1(C)C[C@@H](C(=O)O)N(C(=O)OCC2c3ccccc3-c3ccccc32)C1

bioavailability [19]: < 2.5%
bioavailability [20]: < 2.5%
bioavailability [21]: < 2.5%
IC50 [14]: 0.3 nM
SMILES: CC(C)[C@H](Nc1ccc(CNC(=O)[C@@H]2CSCN2C(=O)C[C@H](N)Cc2cc(F)ccc2F)cc1)C(=O)O

EC50 [17]: 0.794 nM
SMILES: NC(=O)CNC(=O)[C@H](Cc1c[nH]c2ccccc12)NC(=O)[C@@H]1CCCN1C(=O)[C@H](Cc1ccccc1)NC(=O)[C@@H](N)Cc1ccccc1 (H-FFPWG-NH2)
Time [15]: 72 s
Activity [16]: 66.8%

IC50 [1]: 6.5 nM
Ki [1]: 0.74 nM
SMILES: CSC[C@H](NC(=O)COc1cccc2cnccc12)C(=O)N[C@@H](Cc1ccccc1)[C@H](O)C(=O)N1CSC[C@H]1C(=O)NC(C)(C)C

SMILES: CC[C@H](C)[C@H](NC(=O)[C@H](Cc1ccc(O)cc1)NC(=O)[C@@H]1C[Si](C)(C)CN1C(=O)[C@H](CCCCN)NC(=O)[C@@H](N)CCCCN)C(=O)N[C@@H](CC(C)C)C(=O)O
IC50 [9]: 5 nM

EC50 [17]: 0.736 nM
SMILES: NC(=O)CNC(=O)[C@H](Cc1c[nH]c2ccccc12)NC(=O)[C@@H]1CSCN1C(=O)[C@H](Cc1ccccc1)NC(=O)[C@@H](N)Cc1ccccc1 (H-FF[Thz]WG-NH2)
Time [15]: 78 s
Activity [16]: 71.5%

IC50 [22]: 100000 nM
SMILES: N#C[C@@H]1CS[C@H]2C[C@H](NC(=O)OCc3ccccc3)C(=O)N12

EC50 [17]: 0.614 nM
SMILES: CC1(C)OC[C@@H](C(=O)N[C@@H](Cc2c[nH]c3ccccc23)C(=O)NCC(N)=O)N1C(=O)[C@H](Cc1ccccc1)NC(=O)[C@@H](N)Cc1ccccc1 (H-FF[X2]WG-NH2)
Time [15]: 120 s
Activity [16]: 120.1%

bioavailability [19]: < 2.5%
bioavailability [20]: < 2.5%
Vd [23]: 0.3 L/kg
half-life [24]: > 3 h
half-life [25]: > 3 h
clearance [26]: 16.7 mL/min/kg
bioavailability [21]: < 2.5%
Vd [27]: 0.3 L/kg
clearance [28]: 16.7 mL/min/kg
half-life [29]: > 3 h
clearance [30]: 16.7 mL/min/kg
remaining at 1 h [31]: 98.9%
Vd [32]: 0.3 L/kg
SMILES: CC(C)[C@@H](Nc1ccc(CNC(=O)[C@@H]2SCCN2C(=O)C[C@H](N)Cc2cc(F)c(F)cc2F)cc1)C(=O)O
